Results taken from US8592374B2, “Neurotrophic peptides” (Research Foundation for Mental Hygiene, Inc., priority 2007, dated 2013).

Experiments:
[1] = tested on: dentate gyrus progenitor cells; test: Cell proliferation (BrdU labeled cells) in the dentate gyrus of mice given CNTF peptides i.p.; format: in vivo
Excerpt: (§1) All experiments involving mice were done on 8-10 month old female retired breeders of C57BL6 background. A total of 33 mice were divided into 10 groups of 3 animals each (except control group which had 6 mice). The groups are described in Table 1. Details of CNTF peptides are described in Table 2.
(§2) The animals were kept in groups of 3 per cage. The mice were given daily intraperitoneal injections of four CNTF peptides either separately or in a mixture for 2 weeks as described in Table 1. From day 2, BrdU (Bromodeoxyuridine; 150 mg/Kg) was added to the injections. The animals were sacrificed 24 hours after the last injection. Briefly, the animals were perfused transcardially with PBS and their brains taken out and dissected into halves. One hemisphere from each animal was frozen for biochemical analysis and the other was fixed in 4% paraformaldehyde for 48 hours followed by equilibration in 30% sucrose in PBS overnight. These were then processed for immunohistochemistry.
Fixed tissues were cut into 40 μm sections on a freezing sliding microtome. One in 5 sections per brain was processed for BrdU staining and visualized by immunoflorecence. Cell counting was done on these sections to determine the number of BrdU labeled cells (representing newly born cells) in the dentate gyrus of the hippocampus. The area of counting was limited to the granule cell layer and the subgranular zone (a two-nucleus thick layer adjacent to the granule cell layer). For counting purposes, the dentate gyrus was divided into two areas, the outer granule cell layer (oGCL) consisting of one half of the granule cell layer, and the subgranular zone (SGZ) of the inner half (towards the hilus) of the granule cell layer plus a two-nucleus thick layer adjacent to the outer border of the hilus. Cell counting was done on confocal images of the sections according to the optical dissector principle. Volumetric analysis was carried out with the help of Image Pro software.
as §2, with “table” for “Table”, “injection (FIG. 1).” for “injection.”
(§3) Fixed tissues were cut into 40 μm sections on a freezing sliding microtome. One in 5 sections per brain was processed for BrdU staining and visualized by immunoflorecence. Cell counting was done on these sections to determine the number of BrdU labeled cells (representing newly born cells) in the dentate gyrus of the hippocampus. The area of counting was limited to the granule cell layer and the subgranular zone (a two-nucleus thick layer adjacent to the granule cell layer). For counting purposes, the dentate gyrus was divided into two areas, the outer granule cell layer (oGCL) consisting of out half of the granule cell layer, and the […] comprising of the inner half (towards the hilus) of the granule cell layer plus a two-nucleus thick layer adjacent to the outer border of the hilus. Cell counting was done on confocal images of the sections according to the optical dissector principle. Volumetric analysis was carried out with the help of Image Pro software.

[2] = tested on: dentate gyrus progenitors; test: DCX expression in BrdU labeled progenitors in the dentate gyrus; format: in vivo, mice; settings: 14 day treatment group
Excerpt: as §1
as §2, with “table” for “Table”, “injection (FIG. 1).” for “injection.”
as §3

dentate gyrus = test: MAP2 and synaptophysin immunoreactivity in the dentate gyrus (mean pixel intensity), Example 3; format: in vivo, mice; settings: mean pixel intensity in outlined area
Description: as §2, with “table” for “Table”, “injection (FIG. 1).” for “injection.”

mice = test: Morris Water Maze, Peptide 6 subcutaneous pellets; format: in vivo; settings: 30 day group
Description: Behavioral tests employing Morris Water maze task-based memory acquisition, retention and recall paradigms have also been carried out. Two groups of 18 mice each were treated with Peptide 6/Placebo containing implantable subcutaneous pellets with user specified timed release kinetics: 14 days for group 1 and 30 days for group 2.

[3] = tested on: signal transduction of LIF and CNTF; test: Interference with signal transduction of LIF and CNTF
[4] = both concentrations (0.5 and 5 nmoles/animal)

Substance: Ac-VGDGGLFEKKL-NH2 [Peptide 6]
- cell proliferation in the SGZ (subgranular zone) [1, 4]: increased cell proliferation
- cell proliferation in the oGCL (outer portion of the granule cell layer) [1, 4]: increased cell proliferation
- proliferation of dentate gyrus progenitor cells compared with Peptide 9 ([1]; daily i.p. injections for 2 weeks): more proliferation than Peptide 9
- proliferation of dentate gyrus progenitor cells ([1]; daily i.p. injections for 2 weeks, BrdU labeling, 8-10 month old female C57BL6 mice): statistically significant increase
- differentiation of dentate gyrus progenitors into DCX (doublecortin) expressing cells [2]: two fold increase
- MAP2 immunoreactivity in the dentate gyrus (dentate gyrus): statistically significant increase
- synaptophysin immunoreactivity in the dentate gyrus (dentate gyrus): statistically significant increase
- memory acquisition (time spent and distance covered in the target quadrant), Morris Water Maze (mice): significant improvement in memory acquisition
- interference with signal transduction of LIF versus CNTF [3]: interferes with the signal transduction of LIF more than with that of CNTF
